Two compounds from ChEMBL document CHEMBL4406836, “The design of a cell-selective fowlicidin-1-derived peptide with both antimicrobial and anti-inflammatory activities” (Eur J Med Chem, 2019) can be followed below.

Series [1] relates to Escherichia coli. Nature of the series: Antibacterial activity against Escherichia coli KCTC 1682 assessed as reduction in bacterial growth incubated for 18 hrs in presence of 1 mM MgCl2 by spectrophotometry based microtiter broth dilution method. To be noted: KCTC 1682, 18 h. It counts as functional.
For a further series, the system named is Erythrocyte. Description: Hemolytic activity in sheep RBC assessed as minimal hemolytic concentration causing 10% hemolysis incubated for 2 hrs by ELISA. In kind it is ADME, cell-based, Ovis aries.
Series [2] relates to Escherichia coli. Nature of the series: Antibacterial activity against Escherichia coli KCTC 1682 assessed as reduction in bacterial growth incubated for 18 hrs in presence of 4 uM FeCl3 by spectrophotometry based microtiter broth dilution method. It counts as functional. To be noted: KCTC 1682, 18 h.
Series [3] concerns Escherichia coli. Description: Antibacterial activity against Escherichia coli KCTC 1682 assessed as reduction in bacterial growth incubated for 18 hrs in presence of 4.5 mM KCl by spectrophotometry based microtiter broth dilution method. In kind it is functional. To be noted: KCTC 1682, 18 h.
Series [4] relates to Escherichia coli. Description: Antibacterial activity against Escherichia coli KCTC 1682 assessed as reduction in bacterial growth incubated for 18 hrs in presence of 20 % human serum by spectrophotometry based microtiter broth dilution method. It counts as functional. Conditions: KCTC 1682, 18 h.
Series [5] deals with Pseudomonas aeruginosa. Nature of the series: Potency index, ratio of MIC of melittin to MIC of compound for antibacterial activity against multidrug-resistant Pseudomonas aeruginosa CCARM 2109 assessed as reduction in bacterial growth incubated for 18 hrs by spectrophotometry based microtiter broth dilution method. It counts as functional.
Series [6] has as its system Staphylococcus aureus. Description: Antibacterial activity against methicillin-resistant Staphylococcus aureus CCARM 3089 assessed as reduction in bacterial growth at 4 uM incubated for 72 hrs in presence of chloramphenicol by spectrophotometry. It counts as functional. To be noted: CCARM 3089, 72 h.
The next series has as its system RAW264.7. Nature of the series: Antiinflammatory activity in mouse RAW264.7 cells assessed as reduction in LPS-induced NO production at 10 uM incubated for 48 hrs by Griess reagent based assay. It counts as functional, cell-based.
The subject of another series is Bacillus subtilis. Nature of the series: Antibacterial activity against Bacillus subtilis KCTC 3068 assessed as reduction in bacterial growth incubated for 18 hrs by spectrophotometry based microtiter broth dilution method. In kind it is functional. Conditions: KCTC 3068, 18 h.
Series [7] concerns Pseudomonas aeruginosa. Description: Antibacterial activity against Pseudomonas aeruginosa KCTC 1637 assessed as reduction in bacterial growth incubated for 18 hrs by spectrophotometry based microtiter broth dilution method. Conditions: KCTC 1637, 18 h. It counts as functional.
Series [8] has as its system Staphylococcus aureus. Description: Potency index, ratio of MIC of LL-37 to MIC of compound for antibacterial activity against methicillin-resistant Staphylococcus aureus CCARM 3090 assessed as reduction in bacterial growth incubated for 18 hrs by spectrophotometry based microtiter broth dilution method. In kind it is functional.
For series [9], the system named is Enterococcus faecium. Nature of the series: Potency index, ratio of MIC of LL-37 to MIC of compound for antibacterial activity against vancomycin-resistant Enterococcus faecium ATCC 51559 assessed as reduction in bacterial growth incubated for 18 hrs by spectrophotometry based microtiter broth dilution method. It counts as functional.
Series [10] concerns Staphylococcus aureus. Description: Antibacterial activity against methicillin-resistant Staphylococcus aureus CCARM 3089 assessed as reduction in bacterial growth at 4 uM incubated for 72 hrs in presence of ciprofloxacin by spectrophotometry. It counts as functional. To be noted: CCARM 3089, 72 h.
Series [11] concerns Staphylococcus aureus. Description: Antibacterial activity against Staphylococcus aureus KCTC 1621 assessed as reduction in bacterial growth incubated for 18 hrs in presence of […] by spectrophotometry based microtiter broth dilution method. It counts as functional. To be noted: KCTC 1621, 18 h.
The test system of series [12] is Staphylococcus aureus. Nature of the series: Potency index, ratio of MIC of melittin to MIC of compound for antibacterial activity against methicillin-resistant Staphylococcus aureus CCARM 3095 assessed as reduction in bacterial growth incubated for 18 hrs by spectrophotometry based microtiter broth dilution method. It counts as functional.
Series [13] has as its system Staphylococcus aureus. Nature of the series: Potency index, ratio of MIC of melittin to MIC of compound for antibacterial activity against methicillin-resistant Staphylococcus aureus CCARM 3089 assessed as reduction in bacterial growth incubated for 18 hrs by spectrophotometry based microtiter broth dilution method. It counts as functional.
For series [14], the system named is Enterococcus faecium. Description: Potency index, ratio of MIC of melittin to MIC of compound for antibacterial activity against vancomycin-resistant Enterococcus faecium ATCC 51559 assessed as reduction in bacterial growth incubated for 18 hrs by spectrophotometry based microtiter broth dilution method. In kind it is functional.
Series [15] deals with Staphylococcus aureus. Nature of the series: Antibacterial activity against Staphylococcus aureus KCTC 1621 assessed as reduction in bacterial growth incubated for 18 hrs by spectrophotometry based microtiter broth dilution method. In kind it is functional. To be noted: KCTC 1621, 18 h.
In series [16] the test system is Staphylococcus aureus. Description: Antibacterial activity against Staphylococcus aureus KCTC 1621 assessed as reduction in bacterial growth incubated for 18 hrs in presence of 20% human serum by spectrophotometry based microtiter broth dilution method. To be noted: KCTC 1621, 18 h. In kind it is functional.
Series [17] has as its system Pseudomonas aeruginosa. Nature of the series: Potency index, ratio of MIC of melittin to MIC of compound for antibacterial activity against multidrug-resistant Pseudomonas aeruginosa CCARM 2095 assessed as reduction in bacterial growth incubated for 18 hrs by spectrophotometry based microtiter broth dilution method. It counts as functional.
Series [18] concerns Lipopolysaccharide (LPS). Description: Displacement of BODIPY-TR-cadaverine from Escherichia coli O111:B4 LPS by fluorescence spectrophotometry.
Series [19] has as its system Lipopolysaccharide (LPS). Description: Displacement of BODIPY-TR-cadaverine from Escherichia coli O111:B4 LPS at 16 uM by fluorescence spectrophotometry relative to control.
In series [20] the test system is Staphylococcus aureus. Nature of the series: Antibacterial activity against methicillin-resistant Staphylococcus aureus CCARM 3089 assessed as reduction in bacterial growth at 8 uM incubated for 72 hrs in presence of oxacillin by spectrophotometry. In kind it is functional. To be noted: CCARM 3089, 72 h.
For series [21], the system named is Pseudomonas aeruginosa. Description: Antibacterial activity against multidrug-resistant Pseudomonas aeruginosa CCARM 2095 assessed as reduction in bacterial growth at 4 uM incubated for 72 hrs in presence of ciprofloxacin by spectrophotometry. It counts as functional. To be noted: CCARM 2095, 72 h.
Series [22] deals with Staphylococcus aureus. Nature of the series: Antibacterial activity against methicillin-resistant Staphylococcus aureus CCARM 3089 assessed as reduction in bacterial growth at 8 uM incubated for 72 hrs in presence of ciprofloxacin by spectrophotometry. To be noted: CCARM 3089, 72 h. It counts as functional.

The source made the active and inactive calls. The rule behind the calls is not given here.

For the compound H-LVIRWVRAGYKLYRAIKKK-NH2, the MIC in the series with Escherichia coli [1] was found to be 4 µM; in the series on Escherichia coli [2], 4 µM; with Escherichia coli [3] it was 4 µM; with Escherichia coli [4], 8 µM; in the series on Staphylococcus aureus [6], 0.5 µM; with Bacillus subtilis, 2 µM. In addition, the MIC came to 8 µM in the series on Pseudomonas aeruginosa [7]; 0.5 µM with Staphylococcus aureus [10]; 4 µM with Staphylococcus aureus [11]; 2 µM in the series with Staphylococcus aureus [15]; 4 µM in the series on Staphylococcus aureus [16]. In the series on Erythrocyte, the MHC10 was 105 µM. Further, the Ratio with Pseudomonas aeruginosa [5], with Staphylococcus aureus [8], with Enterococcus faecium [9], with Staphylococcus aureus [12], with Staphylococcus aureus [13] and with Enterococcus faecium [14] was 2 - 8 throughout. Also, in the series with Pseudomonas aeruginosa [17], the Ratio is recorded as 2 - 8. Also, the result in the series with RAW264.7 was Active. Besides, the inhibition result was “Dose-dependent effect” in the series with Lipopolysaccharide (LPS) [18] and 100% in the series with Lipopolysaccharide (LPS) [19].

For the compound `CC[C@H](C)[C@H](NC(=O)[C@H](CCCCN)NC(=O)[C@H](CCC(=O)O)NC(=O)[C@H](CCCCN)NC(=O)[C@H](CO)NC(=O)[C@H](CCCCN)NC(=O)[C@H](CCCNC(=N)N)NC(=O)[C@H](Cc1ccccc1)NC(=O)[C@H](Cc1ccccc1)NC(=O)[C@H](CC(=O)O)NC(=O)CNC(=O)[C@H](CC(C)C)NC(=O)[C@@H](N)CC(C)C)C(=O)NCC(=O)N[C@@H](CCCCN)C(=O)N[C@@H](CCC(=O)O)C(=O)N[C@@H](Cc1ccccc1)C(=O)N[C@@H](CCCCN)C(=O)N[C@@H](CCCNC(=N)N)C(=O)N[C@H](C(=O)N[C@H](C(=O)N[C@@H](CCC(N)=O)C(=O)N[C@@H](CCCNC(=N)N)C(=O)N[C@H](C(=O)N[C@@H](CCCCN)C(=O)N[C@@H](CC(=O)O)C(=O)N[C@@H](Cc1ccccc1)C(=O)N[C@@H](CC(C)C)C(=O)N[C@@H](CCCNC(=N)N)C(=O)N[C@@H](CC(N)=O)C(=O)N[C@@H](CC(C)C)C(=O)N[C@H](C(=O)N1CCC[C@H]1C(=O)N[C@@H](CCCNC(=N)N)C(=O)N[C@H](C(=O)N[C@@H](CCC(=O)O)C(=O)N[C@@H](CO)C(=O)O)[C@@H](C)O)C(C)C)[C@@H](C)CC)C(C)C)[C@@H](C)CC` [CATHELICIDIN], the MIC in the series on Staphylococcus aureus [20] came out at 2 µM; in the series on Pseudomonas aeruginosa [21], 2 µM; in the series on Staphylococcus aureus [22] it was 8 µM.
